# Data: patent publication US20160362393A1, “EN[…] AGENT” (THE UNIVERSITY OF TOKYO, priority 2014, published 2016)
# Tested on: 1st-stage larvae of Haemonchus contortus
# Assay: Test for effect on motion of larvae of Haemonchus nematode (Haemonchus contortus)
# Assay type: cell-based
# Conditions: 20 larvae per well, 27° C./95% RH for 4 days, corrected for DMSO negative control, duplicate
# Experimental: Test for Effect on Motion of Larvae of Haemonchus Nematode (Haemonchus contortus)
# The compound of the present invention was prepared as solutions in 100% DMSO at the final concentrations of 50 ppm, 5 ppm, 0.5 ppm, 0.05 ppm and 0.005 ppm. DMSO stands for dimethyl sulfoxide.
# A larval suspension containing 1st-stage larvae of Haemonchus contortus harvested by the Baermann technique (for example, see K. Nakazono et al., “Inclination of Baermann funnel wall and efficiency of nematode extraction” Proc. Assoc. Pl. Prot. Kyushu 33; 126-130 (1987) was placed at a density of 20 larvae per well in a test place, and 0.5 μL/well of the test solution containing the compound of the present invention diluted to a predetermined concentration was added to the test plate. The plate was kept, under the conditions of 27° C./95% RH for 4 days. In the test, ivermectin was used for the positive control and DMSO was used for the negative control.
# The motor ability of the larvae was examined with an automatic analyzer equipped with an LCD camera. The inhibitory effect on the motion of the larvae in each treatment plot was corrected based on the inhibitory effect in the plot treated with DMSO only for the negative control. The EC50 value was calculated from the data on the corrected inhibitory effect on the motion of the larvae, and graded according to the criteria shown below.
# The test was conducted in duplicate per plot.
row,SMILES,"EC50 value, inhibitory effect on the motion of the larvae (graded)"
1,O=C(NCCc1ccc(Oc2cnccn2)cc1Cl)c1nccnc1C(F)(F)F [Compound 1-7],C or higher
2,O=C(NCCc1ccc(Oc2ccc(C(F)(F)F)cc2)cc1Cl)c1nccnc1C(F)(F)F [Compound 1-21],C or higher
3,COC(CNC(=O)c1nccnc1C(F)(F)F)c1ccc(Oc2ccc(C(F)(F)F)cn2)cc1Cl (racemic) [Compound 1-39],C or higher
4,O=C(NCC1(c2ccc(Oc3ccc(C(F)(F)F)cn3)cc2Cl)CC1)c1nccnc1C(F)(F)F [Compound 1-29],C or higher
5,O=C(NCCc1ccc(Oc2ccnc(Cl)n2)cc1Cl)c1nccnc1C(F)(F)F [Compound 1-10],C or higher
6,COC(CNC(=O)c1nccnc1C(F)(F)F)c1ccc(Oc2cccnc2)cc1Cl (racemic) [Compound 1-45],C or higher
7,CC(C)(CNC(=O)c1nccnc1C(F)(F)F)c1ccc(Oc2ncc(Cl)cc2Cl)cc1Cl [Compound 1-27],C or higher
8,CC(CNC(=O)c1nccnc1C(F)(F)F)c1ccc(Oc2ncc(C(F)(F)F)cc2Cl)cc1Cl (racemic) [Compound 1-22],C or higher
9,COC(CNC(=O)c1nccnc1C(F)(F)F)c1ccc(Oc2ncc(C(F)(F)F)cc2Cl)cc1Cl (racemic) [Compound 1-38],C or higher
10,O=C(NCCc1ccc(Oc2ncc(Cl)cc2Cl)cc1Cl)c1nccnc1C(F)(F)F [Compound 1-3],C or higher
11,O=C(NCCc1ccc(-c2ccc(C(F)(F)F)cc2)cc1Cl)c1nccnc1C(F)(F)F [Compound 1-31],C or higher
12,O=C(NCC1(c2ccc(Oc3ncc(C(F)(F)F)cc3Cl)cc2Cl)CC1)c1nccnc1C(F)(F)F [Compound 1-28],C or higher
13,O=C(NCCc1ccc(-c2cc(F)cc(F)c2)cc1Cl)c1nccnc1C(F)(F)F [Compound 1-33],C or higher
14,O=C(NCCc1ccc(Oc2nc3ccccc3s2)cc1Cl)c1nccnc1C(F)(F)F [Compound 1-17],C or higher
15,O=C(NCCc1ccc(Oc2ccc3ccccc3n2)cc1Cl)c1nccnc1C(F)(F)F [Compound 1-15],C or higher
16,Cc1cc(Oc2ccc(CCNC(=O)c3nccnc3C(F)(F)F)c(Cl)c2)nc(Cl)n1 [Compound 1-12],C or higher
17,O=C(NCCc1ccc(-c2cccnc2)cc1Cl)c1nccnc1C(F)(F)F [Compound 1-37],C or higher
18,O=C(NCCc1ccc(Oc2nc3ccccc3o2)cc1Cl)c1nccnc1C(F)(F)F [Compound 1-19],C or higher

row,SMILES,"EC50 value, inhibitory effect on the motion of the larvae (graded)"
1,COC(CNC(=O)c1nccnc1C(F)(F)F)c1ccc(Oc2ncc(Cl)cc2Cl)cc1Cl (racemic) [Compound 1-40],C or higher
2,CC(CNC(=O)c1nccnc1C(F)(F)F)c1ccc(Oc2ccc(C(F)(F)F)cn2)cc1Cl (racemic) [Compound 1-23],C or higher
3,O=C(NCCc1ccc(-c2ccccc2)cc1Cl)c1nccnc1C(F)(F)F [Compound 1-35],C or higher
4,O=C(NCCc1ccc(-c2cccc(C(F)(F)F)c2)cc1Cl)c1nccnc1C(F)(F)F [Compound 1-32],C or higher
5,CC(C)(CNC(=O)c1nccnc1C(F)(F)F)c1ccc(Oc2ccc(C(F)(F)F)cn2)cc1Cl [Compound 1-26],C or higher
6,O=C(NCCc1ccc(-c2ccncc2)cc1Cl)c1nccnc1C(F)(F)F [Compound 1-36],C or higher
7,O=C(NCCc1ccc(Oc2ncc(Br)cc2Cl)cc1Cl)c1nccnc1C(F)(F)F [Compound 1-4],C or higher
8,CC(CNC(=O)c1nccnc1C(F)(F)F)c1ccc(Oc2ncc(Cl)cc2Cl)cc1Cl (racemic) [Compound 1-24],C or higher
9,COC(CNC(=O)c1nccnc1C(F)(F)F)c1ccc(Oc2nc3ccccc3s2)cc1Cl (racemic) [Compound 1-41],C or higher
10,O=C(NCCc1ccc(Oc2cnc3ccccc3n2)cc1Cl)c1nccnc1C(F)(F)F [Compound 1-16],C or higher
11,O=C(NCCc1ccc(Oc2ccc(C(F)(F)F)cn2)cc1Cl)c1nccnc1C(F)(F)F [Compound 1-2],C or higher
12,O=C(NCC1(c2ccc(Oc3ncc(Cl)cc3Cl)cc2Cl)CC1)c1nccnc1C(F)(F)F [Compound 1-30],C or higher
13,CC(C)(CNC(=O)c1nccnc1C(F)(F)F)c1ccc(Oc2ncc(C(F)(F)F)cc2Cl)cc1Cl [Compound 1-25],C or higher
14,O=C(NCCc1ccc(Oc2nc3ccc(Cl)cc3s2)cc1Cl)c1nccnc1C(F)(F)F [Compound 1-18],C or higher
15,COc1cc(OC)nc(Oc2ccc(CCNC(=O)c3nccnc3C(F)(F)F)c(Cl)c2)n1 [Compound 1-8],C or higher
16,O=C(NCCc1ccc(Oc2cc(Cl)nc(Cl)n2)cc1Cl)c1nccnc1C(F)(F)F [Compound 1-11],C or higher
17,Cc1cnc(Cl)nc1Oc1ccc(CCNC(=O)c2nccnc2C(F)(F)F)c(Cl)c1 [Compound 1-13],C or higher
